In article PMC5415086 (Nature, 2010):

How the values were obtained:
[1] = tested on: bone marrow-derived macrophages (BMDMs); assay: gene transcription in BMDMs without LPS stimulation; assay type: cell-based, C57BL/6 mice; conditions: absence of LPS stimulation
[2] = tested on: other bromodomain-containing proteins from each arm of the phylogeny tree; assay: interaction with other bromodomain-containing proteins; assay type: binding; conditions: selectivity
[3] = tested on: panel of 38 unrelated proteins; assay: activity towards a panel of unrelated proteins; conditions: selectivity
[4] = tested on: bone marrow-derived macrophages (BMDMs); assay: LPS-induced signalling; assay type: cell-based, C57BL/6 mice; conditions: I-BET treated cells
[5] = tested on: bone marrow-derived macrophages (BMDMs); assay: LPS-inducible gene expression in macrophages; assay type: cell-based, C57BL/6 mice; conditions: for number of LPS-inducible genes down-regulated: I-BET 1 μM, >2 fold
pCAF = pCAF (Homo sapiens, UniProt Q92831); assay: histone acetyltransferase; assay type: biochemical
Sequence of pCAF (Q92831 whole entry, species assumed): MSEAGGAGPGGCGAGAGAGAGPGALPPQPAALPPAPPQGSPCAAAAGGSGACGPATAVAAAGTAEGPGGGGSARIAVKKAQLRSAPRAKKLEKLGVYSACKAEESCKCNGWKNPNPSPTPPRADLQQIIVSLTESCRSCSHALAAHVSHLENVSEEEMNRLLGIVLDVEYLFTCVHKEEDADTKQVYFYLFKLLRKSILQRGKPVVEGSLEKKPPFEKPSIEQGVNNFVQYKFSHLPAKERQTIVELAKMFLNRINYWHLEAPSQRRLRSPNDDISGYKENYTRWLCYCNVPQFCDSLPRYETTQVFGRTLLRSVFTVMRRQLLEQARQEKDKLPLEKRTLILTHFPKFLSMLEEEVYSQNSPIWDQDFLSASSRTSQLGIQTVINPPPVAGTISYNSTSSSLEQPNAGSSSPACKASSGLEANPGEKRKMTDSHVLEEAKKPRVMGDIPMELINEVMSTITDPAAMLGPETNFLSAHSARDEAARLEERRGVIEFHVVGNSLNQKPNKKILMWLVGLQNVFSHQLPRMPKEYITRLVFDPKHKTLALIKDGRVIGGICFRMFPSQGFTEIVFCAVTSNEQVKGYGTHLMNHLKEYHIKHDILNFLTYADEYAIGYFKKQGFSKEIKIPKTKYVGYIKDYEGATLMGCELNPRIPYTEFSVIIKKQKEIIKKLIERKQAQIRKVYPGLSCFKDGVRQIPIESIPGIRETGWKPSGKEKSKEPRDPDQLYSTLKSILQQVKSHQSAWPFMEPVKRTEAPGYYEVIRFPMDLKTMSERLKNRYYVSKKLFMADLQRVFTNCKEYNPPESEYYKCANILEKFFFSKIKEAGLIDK

p300 = p300 (Homo sapiens, UniProt Q09472); assay: histone acetyltransferase; assay type: biochemical
GCN5 = GCN5 (Homo sapiens, UniProt Q92830); assay: histone acetyltransferase; assay type: biochemical
Sequence of GCN5 (Q92830 whole entry, species assumed): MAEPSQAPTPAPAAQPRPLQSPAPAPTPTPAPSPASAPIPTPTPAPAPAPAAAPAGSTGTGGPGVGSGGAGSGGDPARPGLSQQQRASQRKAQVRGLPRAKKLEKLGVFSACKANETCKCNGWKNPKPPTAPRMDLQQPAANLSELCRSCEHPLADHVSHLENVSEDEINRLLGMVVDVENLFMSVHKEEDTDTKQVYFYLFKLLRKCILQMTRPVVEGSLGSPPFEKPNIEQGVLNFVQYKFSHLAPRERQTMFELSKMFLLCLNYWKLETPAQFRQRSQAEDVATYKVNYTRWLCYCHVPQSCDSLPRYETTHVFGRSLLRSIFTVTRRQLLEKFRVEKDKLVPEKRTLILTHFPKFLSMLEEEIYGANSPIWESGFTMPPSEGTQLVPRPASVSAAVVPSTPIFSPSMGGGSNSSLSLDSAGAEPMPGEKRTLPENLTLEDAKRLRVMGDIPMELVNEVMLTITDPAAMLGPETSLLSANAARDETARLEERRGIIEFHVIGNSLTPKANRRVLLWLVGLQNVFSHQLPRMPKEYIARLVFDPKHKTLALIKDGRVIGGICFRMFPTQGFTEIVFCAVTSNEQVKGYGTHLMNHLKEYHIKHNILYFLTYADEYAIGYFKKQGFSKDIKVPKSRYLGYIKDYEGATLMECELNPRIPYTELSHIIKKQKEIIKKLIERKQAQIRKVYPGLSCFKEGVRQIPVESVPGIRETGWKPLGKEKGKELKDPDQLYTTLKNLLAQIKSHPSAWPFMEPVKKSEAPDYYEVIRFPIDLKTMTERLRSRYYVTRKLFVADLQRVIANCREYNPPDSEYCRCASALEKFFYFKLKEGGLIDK

[6] = tested on: il6 promoter in bone marrow-derived macrophages; assay: ChIP of epigenetic marks at gene promoters in LPS-stimulated macrophages; assay type: cell-based, C57BL/6 mice; conditions: I-BET 5 μM
[7] = tested on: bone marrow-derived macrophages (BMDMs); assay: viability of BMDMs; assay type: cell-based, C57BL/6 mice
CBP = CBP (Homo sapiens, UniProt Q92793); assay: histone acetyltransferase; assay type: biochemical
Sequence of CBP (Q92793 whole entry): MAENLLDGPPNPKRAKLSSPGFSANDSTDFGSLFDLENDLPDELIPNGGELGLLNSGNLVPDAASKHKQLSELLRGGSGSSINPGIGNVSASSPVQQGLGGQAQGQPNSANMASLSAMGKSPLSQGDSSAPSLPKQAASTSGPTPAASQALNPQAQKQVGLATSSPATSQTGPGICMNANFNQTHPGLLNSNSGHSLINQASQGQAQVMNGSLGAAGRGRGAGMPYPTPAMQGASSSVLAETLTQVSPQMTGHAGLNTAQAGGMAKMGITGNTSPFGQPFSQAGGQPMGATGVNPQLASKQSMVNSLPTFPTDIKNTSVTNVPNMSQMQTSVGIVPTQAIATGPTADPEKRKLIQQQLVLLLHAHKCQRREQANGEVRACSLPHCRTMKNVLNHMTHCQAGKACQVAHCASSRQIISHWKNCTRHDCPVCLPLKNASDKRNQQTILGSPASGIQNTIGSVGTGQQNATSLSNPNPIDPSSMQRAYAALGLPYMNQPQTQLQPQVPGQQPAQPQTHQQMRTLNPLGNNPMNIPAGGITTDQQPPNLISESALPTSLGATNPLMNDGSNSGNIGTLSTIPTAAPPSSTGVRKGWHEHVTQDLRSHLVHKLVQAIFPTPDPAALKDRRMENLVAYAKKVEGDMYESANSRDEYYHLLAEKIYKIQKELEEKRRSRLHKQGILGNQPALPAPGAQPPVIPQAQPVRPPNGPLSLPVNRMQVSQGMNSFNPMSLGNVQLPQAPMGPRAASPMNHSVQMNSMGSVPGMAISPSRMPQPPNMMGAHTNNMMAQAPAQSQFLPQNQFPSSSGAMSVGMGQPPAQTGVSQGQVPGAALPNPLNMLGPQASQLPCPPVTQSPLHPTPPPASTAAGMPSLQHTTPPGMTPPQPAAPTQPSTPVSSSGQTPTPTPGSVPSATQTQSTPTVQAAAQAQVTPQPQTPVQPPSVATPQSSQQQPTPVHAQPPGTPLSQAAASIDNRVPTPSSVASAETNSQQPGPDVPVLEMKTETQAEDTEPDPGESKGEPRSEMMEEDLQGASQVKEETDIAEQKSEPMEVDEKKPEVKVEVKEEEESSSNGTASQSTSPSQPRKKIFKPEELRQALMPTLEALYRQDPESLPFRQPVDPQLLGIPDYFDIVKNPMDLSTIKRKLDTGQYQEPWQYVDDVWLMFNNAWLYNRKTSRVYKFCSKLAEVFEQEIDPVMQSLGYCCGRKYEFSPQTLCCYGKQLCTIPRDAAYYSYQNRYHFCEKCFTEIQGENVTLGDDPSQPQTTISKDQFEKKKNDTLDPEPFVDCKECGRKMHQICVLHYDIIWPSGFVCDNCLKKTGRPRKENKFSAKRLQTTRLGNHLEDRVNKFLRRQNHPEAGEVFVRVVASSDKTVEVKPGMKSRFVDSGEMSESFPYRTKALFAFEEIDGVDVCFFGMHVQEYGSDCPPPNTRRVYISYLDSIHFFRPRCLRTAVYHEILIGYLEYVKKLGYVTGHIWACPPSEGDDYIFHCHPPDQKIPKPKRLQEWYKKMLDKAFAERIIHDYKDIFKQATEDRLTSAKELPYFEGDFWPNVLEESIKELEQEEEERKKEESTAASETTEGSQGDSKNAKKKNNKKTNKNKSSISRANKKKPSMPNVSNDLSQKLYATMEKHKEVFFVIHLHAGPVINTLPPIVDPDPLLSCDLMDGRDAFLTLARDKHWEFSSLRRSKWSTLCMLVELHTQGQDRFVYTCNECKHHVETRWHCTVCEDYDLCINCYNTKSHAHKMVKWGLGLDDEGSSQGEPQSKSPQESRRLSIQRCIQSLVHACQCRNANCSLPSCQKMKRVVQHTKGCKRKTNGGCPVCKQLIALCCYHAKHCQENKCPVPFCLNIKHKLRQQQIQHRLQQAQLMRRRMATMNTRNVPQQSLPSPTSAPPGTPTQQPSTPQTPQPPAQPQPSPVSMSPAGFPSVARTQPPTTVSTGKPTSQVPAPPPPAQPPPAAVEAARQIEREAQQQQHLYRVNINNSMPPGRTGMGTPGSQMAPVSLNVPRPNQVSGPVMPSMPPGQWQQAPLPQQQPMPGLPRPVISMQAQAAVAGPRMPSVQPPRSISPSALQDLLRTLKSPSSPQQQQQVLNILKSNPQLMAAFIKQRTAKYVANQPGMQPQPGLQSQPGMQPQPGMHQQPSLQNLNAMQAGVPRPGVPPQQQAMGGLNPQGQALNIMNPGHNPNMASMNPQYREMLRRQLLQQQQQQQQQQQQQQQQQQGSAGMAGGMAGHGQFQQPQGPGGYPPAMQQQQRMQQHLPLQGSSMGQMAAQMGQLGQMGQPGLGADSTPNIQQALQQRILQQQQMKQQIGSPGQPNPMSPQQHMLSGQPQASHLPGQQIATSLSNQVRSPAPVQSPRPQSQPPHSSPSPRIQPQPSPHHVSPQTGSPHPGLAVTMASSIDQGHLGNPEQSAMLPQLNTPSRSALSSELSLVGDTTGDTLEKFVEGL

[8] = tested on: bone marrow-derived macrophages (BMDMs); assay type: cell-based, C57BL/6 mice; conditions: BMDM treatment with the HDAC inhibitor

SMILES | effect on gene transcription [1] | interaction with other bromodomain-containing proteins [2] | activity towards a panel of 38 unrelated proteins [3] | LPS-induced ERK phosphorylation and IκBα degradation [4] | number of LPS-inducible genes down-regulated ([5]; 1 hour after LPS) | number of LPS-inducible genes down-regulated ([5]; 4 hours after LPS) | expression of tnf, ccl2-5, cxcl1/2 ([5]; LPS-stimulated BMDMs) | suppression of HAT activity (pCAF) | suppression of HAT activity (p300) | suppression of HAT activity (GCN5) | BET recruitment at il6 promoter [6] | effect on viability of BMDMs [7] | suppression of HAT activity (CBP) | conversion of sI-BET genes into naI-BET genes [8]
CCNC(=O)C[C@@H]1N=C(c2ccc(Cl)cc2)c2cc(OC)ccc2-n2c(C)nnc21 [I-BET] | marginal effect | did not interact | no activity | unaltered pattern | 38 | 151 | not affected | inability of I-BET to suppress the activity | inability of I-BET to suppress the activity | inability of I-BET to suppress the activity | marked reduction | no effect | inability of I-BET to suppress the activity | 
CC(/C=C/C(=O)NO)=C\[C@@H](C)C(=O)c1ccc(N(C)C)cc1 [trichostatin A] |  |  |  |  |  |  |  |  |  |  |  |  |  | able to “convert” sI-BET into naI-BET genes
